pEC50, pIC50: −log10 of the molar value.
How the values were obtained:
[1] = Metabolic stability in rat liver microsomes assessed as intrinsic clearance at 1 uM incubated for 60 mins by LC-MS/MS analysis; format: ADME, Microsome; settings: read-out: CLH
[2] = target: Cytochrome P450 2B6 (Homo sapiens, UniProt P20813); experiment: Inhibition of CYP2B6 in human liver microsomes in presence of NADPH by LC-MS/MS analysis; format: ADME, Microsome
[3] = Drug uptake in male Sprague-Dawley rat brain assessed as parent compound remaining measured after 6 hrs; format: ADME, tissue-based; settings: read-out: Activity
[4] = target: Cytochrome P450 2C8 (Homo sapiens, UniProt P10632); experiment: Inhibition of CYP2C8 in human liver microsomes in presence of NADPH by LC-MS/MS analysis; format: ADME, Microsome
[5] = Apparent permeability across apical to basolateral side in human Caco-2 cells at 2 uM by LC-MS/MS analysis; format: ADME, cell-based
[6] = Inhibition of CYP2D6 in human liver microsomes in presence of NADPH by LC-MS/MS analysis; format: ADME, Microsome
[7] = target: Cytochrome P450 1A2 (Homo sapiens, UniProt P05177); experiment: Inhibition of CYP1A2 in human liver microsomes in presence of NADPH by LC-MS/MS analysis; format: ADME, Microsome
[8] = target: Cytochrome P450 2C9 (Homo sapiens, UniProt P11712); experiment: Inhibition of CYP2C9 in human liver microsomes in presence of NADPH by LC-MS/MS analysis; format: ADME, Microsome
[9] = Plasma protein binding in human assessed as unbound fraction by LC-MS/MS analysis; format: ADME, cell-free
[10] = target: Cytochrome P450 2C19 (Homo sapiens, UniProt P33261); experiment: Inhibition of CYP2C19 in human liver microsomes in presence of NADPH by LC-MS/MS analysis; format: ADME, Microsome
[11] = Metabolic stability in human liver microsomes assessed as intrinsic clearance at 1 uM incubated for 60 mins by LC-MS/MS analysis; format: ADME, Microsome; settings: read-out: CLH
[12] = Plasma protein binding in dog assessed as unbound fraction by LC-MS/MS analysis; format: ADME, cell-free, Canis lupus familiaris
[13] = Efflux ratio of apparent permeability across apical to basolateral side in human Caco-2 cells at 2 uM by LC-MS/MS analysis; format: ADME, cell-based
[14] = target: Cytochrome P450 3A4 (Homo sapiens, UniProt P08684); experiment: Inhibition of CYP3A4 in human liver microsomes in presence of NADPH by LC-MS/MS analysis; format: ADME, Microsome
[15] = target: T1, 5-hydroxytryptamine receptor 2C (Homo sapiens, UniProt P28335); experiment: Partial agonist activity at recombinant human 5-HT2CR expressed in HEK293 cells incubated for 2 hrs by FLIPR calcium assay; format: functional, cell-based
T1 sequence (P28335 whole entry): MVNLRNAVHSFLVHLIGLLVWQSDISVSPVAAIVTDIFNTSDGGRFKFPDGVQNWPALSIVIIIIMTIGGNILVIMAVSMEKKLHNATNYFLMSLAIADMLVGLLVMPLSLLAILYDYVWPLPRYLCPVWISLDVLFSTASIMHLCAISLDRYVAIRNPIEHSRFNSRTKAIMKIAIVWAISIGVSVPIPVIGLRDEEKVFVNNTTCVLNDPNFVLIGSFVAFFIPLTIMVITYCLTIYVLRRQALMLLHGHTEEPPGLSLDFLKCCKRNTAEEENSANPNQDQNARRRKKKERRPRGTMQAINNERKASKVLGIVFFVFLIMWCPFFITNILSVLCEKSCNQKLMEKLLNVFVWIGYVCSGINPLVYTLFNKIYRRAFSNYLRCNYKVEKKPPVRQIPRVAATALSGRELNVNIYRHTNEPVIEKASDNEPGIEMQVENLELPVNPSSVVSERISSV

[16] = Plasma protein binding in rat assessed as unbound fraction by LC-MS/MS analysis; format: ADME, cell-free

Sequence of Cytochrome P450 2B6 (P20813 whole entry): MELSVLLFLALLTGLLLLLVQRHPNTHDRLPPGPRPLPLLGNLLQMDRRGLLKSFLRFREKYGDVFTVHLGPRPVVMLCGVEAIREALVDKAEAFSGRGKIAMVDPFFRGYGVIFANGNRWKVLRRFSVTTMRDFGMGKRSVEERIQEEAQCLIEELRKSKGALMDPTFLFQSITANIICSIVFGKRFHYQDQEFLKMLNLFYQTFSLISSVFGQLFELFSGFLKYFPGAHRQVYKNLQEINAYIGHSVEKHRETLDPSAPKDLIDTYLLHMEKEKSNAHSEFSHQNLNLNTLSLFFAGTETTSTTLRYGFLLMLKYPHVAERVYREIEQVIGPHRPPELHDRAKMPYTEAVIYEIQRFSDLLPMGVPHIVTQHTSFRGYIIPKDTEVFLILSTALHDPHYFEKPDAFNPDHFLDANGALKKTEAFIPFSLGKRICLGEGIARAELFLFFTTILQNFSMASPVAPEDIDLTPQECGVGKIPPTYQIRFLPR
Sequence of Cytochrome P450 1A2 (P05177 whole entry): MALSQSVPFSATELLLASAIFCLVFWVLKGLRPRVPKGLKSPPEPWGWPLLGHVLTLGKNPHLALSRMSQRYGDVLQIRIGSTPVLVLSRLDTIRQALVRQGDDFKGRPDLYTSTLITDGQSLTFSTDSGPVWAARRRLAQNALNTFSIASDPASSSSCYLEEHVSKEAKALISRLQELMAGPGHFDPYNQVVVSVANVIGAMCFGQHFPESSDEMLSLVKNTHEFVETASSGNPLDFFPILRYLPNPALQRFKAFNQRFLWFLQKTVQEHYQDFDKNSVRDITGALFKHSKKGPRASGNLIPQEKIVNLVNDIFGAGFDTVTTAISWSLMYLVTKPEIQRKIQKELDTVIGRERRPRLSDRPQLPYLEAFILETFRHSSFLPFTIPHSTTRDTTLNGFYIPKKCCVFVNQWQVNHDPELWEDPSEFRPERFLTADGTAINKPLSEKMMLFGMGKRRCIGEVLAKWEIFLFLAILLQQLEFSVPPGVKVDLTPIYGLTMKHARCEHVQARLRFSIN
Sequence of Cytochrome P450 3A4 (P08684 whole entry): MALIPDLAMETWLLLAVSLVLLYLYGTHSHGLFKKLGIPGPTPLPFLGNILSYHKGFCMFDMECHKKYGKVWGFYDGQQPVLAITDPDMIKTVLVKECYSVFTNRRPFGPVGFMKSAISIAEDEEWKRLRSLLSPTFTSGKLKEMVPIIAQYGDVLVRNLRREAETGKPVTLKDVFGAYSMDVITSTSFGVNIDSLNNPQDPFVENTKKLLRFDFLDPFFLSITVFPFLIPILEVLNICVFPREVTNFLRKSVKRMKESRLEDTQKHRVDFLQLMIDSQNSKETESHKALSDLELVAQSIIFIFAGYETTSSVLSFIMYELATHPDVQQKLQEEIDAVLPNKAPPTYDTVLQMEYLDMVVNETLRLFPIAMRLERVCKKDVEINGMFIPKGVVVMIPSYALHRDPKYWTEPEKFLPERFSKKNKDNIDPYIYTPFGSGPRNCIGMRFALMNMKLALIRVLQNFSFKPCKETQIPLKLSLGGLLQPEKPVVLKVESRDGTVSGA
Sequence of Cytochrome P450 2C19 (P33261 whole entry): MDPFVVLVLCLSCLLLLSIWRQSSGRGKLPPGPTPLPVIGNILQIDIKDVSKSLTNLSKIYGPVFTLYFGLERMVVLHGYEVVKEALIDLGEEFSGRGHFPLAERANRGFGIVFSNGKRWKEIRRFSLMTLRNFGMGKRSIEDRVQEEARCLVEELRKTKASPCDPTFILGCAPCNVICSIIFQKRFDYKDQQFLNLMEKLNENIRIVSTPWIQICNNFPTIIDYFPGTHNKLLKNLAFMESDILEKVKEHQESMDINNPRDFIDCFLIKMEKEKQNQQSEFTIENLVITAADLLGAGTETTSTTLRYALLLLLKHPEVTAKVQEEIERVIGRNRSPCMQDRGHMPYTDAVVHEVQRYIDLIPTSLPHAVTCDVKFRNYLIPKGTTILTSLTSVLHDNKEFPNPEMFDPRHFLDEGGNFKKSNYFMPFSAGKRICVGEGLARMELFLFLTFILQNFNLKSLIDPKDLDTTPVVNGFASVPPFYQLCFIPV
Sequence of Cytochrome P450 2C9 (P11712 whole entry): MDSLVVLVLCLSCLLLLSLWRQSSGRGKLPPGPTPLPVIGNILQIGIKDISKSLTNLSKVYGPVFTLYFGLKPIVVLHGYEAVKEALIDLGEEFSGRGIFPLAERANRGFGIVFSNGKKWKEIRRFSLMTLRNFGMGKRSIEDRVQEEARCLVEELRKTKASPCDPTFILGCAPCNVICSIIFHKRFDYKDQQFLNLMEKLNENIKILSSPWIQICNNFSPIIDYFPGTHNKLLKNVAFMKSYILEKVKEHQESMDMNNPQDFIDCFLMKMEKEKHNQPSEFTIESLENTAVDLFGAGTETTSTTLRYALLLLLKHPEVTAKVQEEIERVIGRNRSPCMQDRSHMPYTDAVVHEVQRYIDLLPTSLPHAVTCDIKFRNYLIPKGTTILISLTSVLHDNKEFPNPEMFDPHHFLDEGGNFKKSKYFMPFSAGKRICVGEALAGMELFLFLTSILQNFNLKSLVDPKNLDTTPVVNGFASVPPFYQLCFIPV
Sequence of Cytochrome P450 2C8 (P10632 whole entry): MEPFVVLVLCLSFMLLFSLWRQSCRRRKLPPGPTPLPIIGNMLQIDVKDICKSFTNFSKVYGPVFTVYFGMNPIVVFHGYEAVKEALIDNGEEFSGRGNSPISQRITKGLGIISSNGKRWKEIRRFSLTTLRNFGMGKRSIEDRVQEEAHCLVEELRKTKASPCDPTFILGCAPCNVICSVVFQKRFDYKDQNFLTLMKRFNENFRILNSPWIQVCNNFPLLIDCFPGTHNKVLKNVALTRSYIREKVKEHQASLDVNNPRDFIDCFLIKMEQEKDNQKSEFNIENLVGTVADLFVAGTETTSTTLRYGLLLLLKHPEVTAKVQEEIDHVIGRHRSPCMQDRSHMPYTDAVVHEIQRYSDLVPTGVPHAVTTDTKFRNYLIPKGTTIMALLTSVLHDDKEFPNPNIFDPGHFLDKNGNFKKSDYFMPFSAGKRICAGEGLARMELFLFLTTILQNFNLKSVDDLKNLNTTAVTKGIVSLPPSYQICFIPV

Which results are given for `COc1ccsc1C1CNCCO1` (stereo in doubt; 25a)?
CLint scaled at 1 µM [1]: < 13.5 mL/min/kg; pIC50 [2]: < 4.30; remaining at 6 h [3]: < 20%; pIC50 [4]: < 4.30; Papp A→B at 2 µM [5]: 46 ×10⁻⁶ cm/s; pIC50 [6]: < 4.30; pIC50 [7]: < 4.30; pIC50 [8]: < 4.30; fraction unbound [9]: 0.747; pIC50 [10]: < 4.30; CLint scaled at 1 µM [11]: < 6.8 mL/min/kg; fraction unbound [12]: 0.73; efflux ratio at 2 µM [13]: 0.6; pIC50 [14]: < 4.30; pEC50 [15]: 5.36; fraction unbound [16]: 0.872
